In patent US9670227B2, “Thienopyrimidine derivatives, a process for their preparation and pharmaceutical compositions containing them” (LES LABORATOIRES SERVIER, priority 2013, dated 2017):
Read-outs that look alike come from different tables or passages of the source.

Experiments:
Mcl-1 protein = Mcl-1 protein (UniProtKB primary accession number: Q07820) (Homo sapiens, UniProt Q07820); assay: Inhibition of Mcl-1 by fluorescence polarisation, Method 1; type: binding; settings: fluorescence polarisation test; Method 2 values are underlined in the patent (underlining not visible here); read-out: IC50 (M) Mcl-1 FP
Mcl-1 protein, sequence (Q07820 whole entry): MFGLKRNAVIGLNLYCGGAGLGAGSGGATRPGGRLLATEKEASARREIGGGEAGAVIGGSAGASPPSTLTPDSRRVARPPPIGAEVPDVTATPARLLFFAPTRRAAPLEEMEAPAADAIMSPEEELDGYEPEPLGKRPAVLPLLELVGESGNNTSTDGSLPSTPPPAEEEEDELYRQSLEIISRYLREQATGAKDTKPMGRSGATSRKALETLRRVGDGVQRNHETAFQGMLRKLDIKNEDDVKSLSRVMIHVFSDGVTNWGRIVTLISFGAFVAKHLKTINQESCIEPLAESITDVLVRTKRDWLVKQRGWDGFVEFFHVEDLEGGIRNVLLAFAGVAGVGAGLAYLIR
Procedure, shortened: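 FP readout of relative binding potency. Mcl-1 5 nM final, fluorescein-labelled ligand 1 nM final; buffer 10 mM HEPES, 150 mM NaCl, 0.05% Tween 20, pH 7.4; 11-pt dilution series, 5% DMSO final.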

[1] = system: H929 multiple myeloma tumour line; assay: In vitro cytotoxicity, Microculture Tetrazolium Assay; type: cell-based; settings: H929 cells, 48 hours exposure, MTT, read-out: IC50 (μM) MTT H929
Experimental: The cytotoxicity studies were carried out on the H929 multiple myeloma tumour line.
The cells are distributed onto microplates and exposed to the test compounds for 48 hours.

In the case of C#CCOc1ccccc1CC(Oc1ncnc2sc(-c3ccco3)c(-c3ccc(OCCN4CCN(C)CC4)c(Cl)c3C)c12)C(=O)O [Example 216, (2R)-2-{[(5Sa)-5-{3-chloro-2-methyl-4-[2-(4-methylpiperazin-1-yl)ethoxy]phenyl}-6-(furan-2-yl)thieno[2,3-d]pyrimidin-4-yl]oxy}-3-[2-(prop-2-yn-1-yloxy)phenyl]propanoic acid], the IC50 (Mcl-1 protein) is reported as 8.5e-09 M and the IC50 ([1]; Homo sapiens, NCI-H929, 48 h) is reported as 0.217 µM.
For Cc1c(-c2c(-c3ccco3)sc3ncnc(OC(Cc4ccccc4OCC(=O)N(C)C)C(=O)O)c23)ccc(OCCN2CCN(C)CC2)c1Cl [Example 217, (2R)-2-{[(5Sa)-5-{3-chloro-2-methyl-4-[2-(4-methylpiperazin-1-yl)ethoxy]phenyl}-6-(furan-2-yl)thieno[2,3-d]pyrimidin-4-yl]oxy}-3-{2-[2-(dimethylamino)-2-oxoethoxy]phenyl}propanoic acid], the IC50 (Mcl-1 protein) was 5.3e-09 M and the IC50 ([1]; Homo sapiens, NCI-H929, 48 h) was 1.48 µM.
With CNC(=O)COc1ccccc1CC(Oc1ncnc2sc(-c3ccco3)c(-c3ccc(OCCN4CCN(C)CC4)c(Cl)c3C)c12)C(=O)O [Example 218, (2R)-2-{[(5Sa)-5-{3-chloro-2-methyl-4-[2-(4-methylpiperazin-1-yl)ethoxy]phenyl}-6-(furan-2-yl)thieno[2,3-d]pyrimidin-4-yl]oxy}-3-{2-[2-(methylamino)-2-oxoethoxy]phenyl}propanoic acid] the IC50 (Mcl-1 protein) was 6.5e-09 M and the IC50 ([1]; Homo sapiens, NCI-H929, 48 h) was 0.805 µM.
Cc1c(-c2c(-c3ccco3)sc3ncnc(OC(Cc4ccccc4OCC(=O)Nc4ccccc4)C(=O)O)c23)ccc(OCCN2CCN(C)CC2)c1Cl [Example 219, (2R)-2-{[(5Sa)-5-{3-chloro-2-methyl-4-[2-(4-methylpiperazin-1-yl)ethoxy]phenyl}-6-(furan-2-yl)thieno[2,3-d]pyrimidin-4-yl]oxy}-3-{2-[2-oxo-2-(phenylamino)ethoxy]phenyl}propanoic acid] was tested, and the IC50 (Mcl-1 protein) was 9.9e-09 M and the IC50 ([1]; Homo sapiens, NCI-H929, 48 h) was 0.191 µM.
CCCCNC(=O)COc1ccccc1CC(Oc1ncnc2sc(-c3ccco3)c(-c3ccc(OCCN4CCN(C)CC4)c(Cl)c3C)c12)C(=O)O [Example 220, (2R)-3-{2-[2-(butylamino)-2-oxoethoxy]phenyl}-2-{[(5Sa)-5-{3-chloro-2-methyl-4-[2-(4-methylpiperazin-1-yl)ethoxy]phenyl}-6-(furan-2-yl)thieno[2,3-d]pyrimidin-4-yl]oxy}propanoic acid] showed an IC50 (Mcl-1 protein) of 9e-09 M and an IC50 ([1]; Homo sapiens, NCI-H929, 48 h) of 0.277 µM.
In the case of Cc1c(-c2c(-c3ccco3)sc3ncnc(OC(Cc4ccccc4OCC(F)(F)F)C(=O)O)c23)ccc(OCCN2CCN(C)CC2)c1Cl [Example 221, (2R)-2-{[(5Sa)-5-{3-chloro-2-methyl-4-[2-(4-methylpiperazin-1-yl)ethoxy]phenyl}-6-(furan-2-yl)thieno[2,3-d]pyrimidin-4-yl]oxy}-3-[2-(2,2,2-trifluoroethoxy)phenyl]propanoic acid], the IC50 (Mcl-1 protein) is reported as 6.3e-09 M and the IC50 ([1]; Homo sapiens, NCI-H929, 48 h) is reported as 0.059 µM.
With Cc1c(-c2c(-c3ccco3)sc3ncnc(OC(Cc4ccccc4OCc4cc(Cl)ccn4)C(=O)O)c23)ccc(OCCN2CCN(C)CC2)c1Cl [Example 222, (2R)-2-{[(5Sa)-5-{3-chloro-2-methyl-4-[2-(4-methylpiperazin-1-yl)ethoxy]phenyl}-6-(furan-2-yl)thieno[2,3-d]pyrimidin-4-yl]oxy}-3-{2-[(4-chloropyridin-2-yl)methoxy]phenyl}propanoic acid] the IC50 (Mcl-1 protein) was 7.4e-09 M and the IC50 ([1]; Homo sapiens, NCI-H929, 48 h) was 0.314 µM.
COc1ccnc(COc2ccccc2CC(Oc2ncnc3sc(-c4ccco4)c(-c4ccc(OCCN5CCN(C)CC5)c(Cl)c4C)c23)C(=O)O)c1 [Example 223, (2R)-2-{[(5Sa)-5-{3-chloro-2-methyl-4-[2-(4-methylpiperazin-1-yl)ethoxy]phenyl}-6-(furan-2-yl)thieno[2,3-d]pyrimidin-4-yl]oxy}-3-{2-[(4-methoxypyridin-2-yl)methoxy]phenyl}propanoic acid] was tested, and the IC50 (Mcl-1 protein) was 1.4e-08 M and the IC50 ([1]; Homo sapiens, NCI-H929, 48 h) was 0.346 µM.
For Cc1c(-c2c(-c3ccco3)sc3ncnc(O[C@H](Cc4ccccc4OCc4cc(-c5ccccc5)ncn4)C(=O)O)c23)ccc(OCCN2CCN(C)CC2)c1Cl [Example 224, (2R)-2-{[(5Sa)-5-{3-chloro-2-methyl-4-[2-(4-methylpiperazin-1-yl)ethoxy]phenyl}-6-(furan-2-yl)thieno[2,3-d]pyrimidin-4-yl]oxy}-3-{2-[(6-phenylpyrimidin-4-yl)methoxy]phenyl}propanoic acid], the IC50 (Mcl-1 protein) was 3.7e-09 M and the IC50 [1] was 0.049 µM.
Cc1cc(COc2ccccc2CC(Oc2ncnc3sc(-c4ccco4)c(-c4ccc(OCCN5CCN(C)CC5)c(Cl)c4C)c23)C(=O)O)n(C)n1 [Example 225, (2R)-2-{[(5Sa)-5-{3-chloro-2-methyl-4-[2-(4-methylpiperazin-1-yl)ethoxy]phenyl}-6-(furan-2-yl)thieno[2,3-d]pyrimidin-4-yl]oxy}-3-{2-[(1,3-dimethyl-1H-pyrazol-5-yl)methoxy]phenyl}propanoic acid] was tested, and the IC50 (Mcl-1 protein) was 8.4e-09 M and the IC50 ([1]; Homo sapiens, NCI-H929, 48 h) was 0.105 µM.
Cc1c(-c2c(-c3ccco3)sc3ncnc(O[C@H](Cc4ccccc4OCc4cc(C5CC5)nn4C)C(=O)O)c23)ccc(OCCN2CCN(C)CC2)c1Cl [Example 226, (2R)-2-{[(5Sa)-5-{3-chloro-2-methyl-4-[2-(4-methylpiperazin-1-yl)ethoxy]phenyl}-6-(furan-2-yl)thieno[2,3-d]pyrimidin-4-yl]oxy}-3-{2-[(3-cyclopropyl-1-methyl-1H-pyrazol-5-yl)methoxy]phenyl}propanoic acid] was tested, and the IC50 (Mcl-1 protein) was 2.4e-08 M and the IC50 [1] was 0.311 µM.
For Cc1c(-c2c(-c3ccco3)sc3ncnc(OC(Cc4ccccc4OCc4cc(-c5ccccc5)nn4C)C(=O)O)c23)ccc(OCCN2CCN(C)CC2)c1Cl [Example 227, (2R)-2-{[(5Sa)-5-{3-chloro-2-methyl-4-[2-(4-methylpiperazin-1-yl)ethoxy]phenyl}-6-(furan-2-yl)thieno[2,3-d]pyrimidin-4-yl]oxy}-3-{2-[(1-methyl-3-phenyl-1H-pyrazol-5-yl)methoxy]phenyl}propanoic acid], the IC50 (Mcl-1 protein) was 2e-08 M and the IC50 ([1]; Homo sapiens, NCI-H929, 48 h) was 0.192 µM.
Cc1c(-c2c(-c3ccco3)sc3ncnc(OC(Cc4ccccc4OCc4cc(-c5ccco5)nn4C)C(=O)O)c23)ccc(OCCN2CCN(C)CC2)c1Cl [Example 228, (2R)-2-{[(5Sa)-5-{3-chloro-2-methyl-4-[2-(4-methylpiperazin-1-yl)ethoxy]phenyl}-6-(furan-2-yl)thieno[2,3-d]pyrimidin-4-yl]oxy}-3-(2-{[3-(furan-2-yl)-1-methyl-1H-pyrazol-5-yl]methoxy}phenyl)propanoic acid] was tested, and the IC50 (Mcl-1 protein) was 2.2e-08 M and the IC50 ([1]; Homo sapiens, NCI-H929, 48 h) was 0.166 µM.
Compound Cc1c(-c2c(-c3ccco3)sc3ncnc(OC(Cc4ccccc4OCC4CC4)C(=O)O)c23)ccc(OCCN2CCN(C)CC2)c1Cl [Example 229, (2R)-2-{[(5Sa)-5-{3-chloro-2-methyl-4-[2-(4-methylpiperazin-1-yl)ethoxy]phenyl}-6-(furan-2-yl)thieno[2,3-d]pyrimidin-4-yl]oxy}-3-[2-(cyclopropylmethoxy)phenyl]propanoic acid] has an IC50 (Mcl-1 protein) of 4.5e-09 M and an IC50 ([1]; Homo sapiens, NCI-H929, 48 h) of 0.134 µM.
Work on Cc1c(-c2c(-c3ccco3)sc3ncnc(OC(Cc4ccccc4OCc4cc5ccccc5cn4)C(=O)O)c23)ccc(OCCN2CCN(C)CC2)c1Cl [Example 230, (2R)-2-{[(5Sa)-5-{3-chloro-2-methyl-4-[2-(4-methylpiperazin-1-yl)ethoxy]phenyl}-6-(furan-2-yl)thieno[2,3-d]pyrimidin-4-yl]oxy}-3-[2-(isoquinolin-3-ylmethoxy)phenyl]propanoic acid] yielded an IC50 (Mcl-1 protein) of 1.2e-08 M and an IC50 ([1]; Homo sapiens, NCI-H929, 48 h) of 0.312 µM.
Work on Cc1c(-c2c(-c3ccco3)sc3ncnc(OC(Cc4ccccc4OCc4ccc(Cl)cn4)C(=O)O)c23)ccc(OCCN2CCN(C)CC2)c1Cl [Example 231, (2R)-2-{[(5Sa)-5-{3-chloro-2-methyl-4-[2-(4-methylpiperazin-1-yl)ethoxy]phenyl}-6-(furan-2-yl)thieno[2,3-d]pyrimidin-4-yl]oxy}-3-{2-[(5-chloropyridin-2-yl)methoxy]phenyl}propanoic acid] yielded an IC50 (Mcl-1 protein) of 1e-08 M and an IC50 ([1]; Homo sapiens, NCI-H929, 48 h) of 0.116 µM.
Cc1c(-c2c(-c3ccco3)sc3ncnc(OC(Cc4ccccc4OCc4ccc(F)cn4)C(=O)O)c23)ccc(OCCN2CCN(C)CC2)c1Cl [Example 232, (2R)-2-{[(5Sa)-5-{3-chloro-2-methyl-4-[2-(4-methylpiperazin-1-yl)ethoxy]phenyl}-6-(furan-2-yl)thieno[2,3-d]pyrimidin-4-yl]oxy}-3-{2-[(5-fluoropyridin-2-yl)methoxy]phenyl}propanoic acid] gave an IC50 (Mcl-1 protein) of 9e-09 M and an IC50 ([1]; Homo sapiens, NCI-H929, 48 h) of 0.046 µM.
With COc1ccc(COc2ccccc2CC(Oc2ncnc3sc(-c4ccco4)c(-c4ccc(OCCN5CCN(C)CC5)c(Cl)c4C)c23)C(=O)O)nc1 [Example 233, (2R)-2-{[(5Sa)-5-{3-chloro-2-methyl-4-[2-(4-methylpiperazin-1-yl)ethoxy]phenyl}-6-(furan-2-yl)thieno[2,3-d]pyrimidin-4-yl]oxy}-3-{2-[(5-methoxypyridin-2-yl)methoxy]phenyl}propanoic acid] the IC50 (Mcl-1 protein) was 3.4e-09 M and the IC50 ([1]; Homo sapiens, NCI-H929, 48 h) was 0.099 µM.
Compound Cc1c(-c2c(-c3ccco3)sc3ncnc(OC(Cc4ccccc4OCc4ccc5ccccc5n4)C(=O)O)c23)ccc(OCCN2CCN(C)CC2)c1Cl [Example 234, (2R)-2-{[(5Sa)-5-{3-chloro-2-methyl-4-[2-(4-methylpiperazin-1-yl)ethoxy]phenyl}-6-(furan-2-yl)thieno[2,3-d]pyrimidin-4-yl]oxy}-3-[2-(quinolin-2-ylmethoxy)phenyl]propanoic acid] has an IC50 (Mcl-1 protein) of 1.1e-08 M and an IC50 ([1]; Homo sapiens, NCI-H929, 48 h) of 0.135 µM.
Compound Cc1cccc(COc2ccccc2CC(Oc2ncnc3sc(-c4ccco4)c(-c4ccc(OCCN5CCN(C)CC5)c(Cl)c4C)c23)C(=O)O)n1 [Example 235, (2R)-2-{[(5Sa)-5-{3-chloro-2-methyl-4-[2-(4-methylpiperazin-1-yl)ethoxy]phenyl}-6-(furan-2-yl)thieno[2,3-d]pyrimidin-4-yl]oxy}-3-{2-[(6-methylpyridin-2-yl)methoxy]phenyl}propanoic acid] has an IC50 (Mcl-1 protein) of 5.1e-09 M and an IC50 ([1]; Homo sapiens, NCI-H929, 48 h) of 0.098 µM.
